For three compounds, IC50 results are on record in BindingDB's records for doi:10.1021/jm00148a009 (1985).

Where only a bound is given, the exact number is not on record here.

The test concerns the target Prostacyclin synthase (Sus scrofa). Nature of the test: Inhibition of porcine aorta prostacyclin PGI-2 synthase by bioassay method.
Take `CC(=O)Nc1ccc(OCCn2ccnc2)cc1` [N-[4-(2-Imidazol-1-yl-ethoxy)-phenyl]-acetamide]: the IC50 – broadly, the concentration that inhibits the measured activity by half – is > 100 µM.

Regarding `O=C(O)Cc1ccccc1OCCn1ccnc1` [[2-(2-Imidazol-1-yl-ethoxy)-phenyl]-acetic acid], the IC50 was > 100 µM.

With `c1cn(CCOc2ccc(-c3nnn[nH]3)cc2)cn1` [5-[4-(2-Imidazol-1-yl-ethoxy)-phenyl]-1H-tetrazole], the IC50 was > 100 µM.
